Laboratory results as given in US7026122B2, “Methods of assaying for compounds that inhibit premature translation termination and nonsense-mediated RNA decay” (PTC Therapeutics, Inc., priority 1999, dated 2006).

Key:
[1] = tested on: premature translation termination (luciferase reporter with premature stop codon); test: Suppression assay in cells transiently transfected with stop codon luciferase plasmids; format: cell-based; settings: cells transiently infected with pMLT49, pMLT54 or pMLT55h for 24 hours; 12 hour exposure; FIGS. 2A-C
Procedure: Cells, transiently infected with the indicated plasmids for 24 hours, were exposed to the indicated concentration of G418 (panel A, pMLT49; panel B, pMLT54; panel C, pMLT55h). Luciferase activity was measured after a 12 hour exposure.

[2] = tested on: premature translation termination and NMD (luciferase reporter with premature stop codon); test: Cell-based assay, 293 cells stably transfected with pMLT55, luciferase activity; settings: 12 hour exposure
Procedure: The indicated independent clones were exposed to the indicated concentrations of G418. Luciferase activity was measured after a 12 hour exposure.
The indicated cell numbers were plated per well of a 96 well plate. Cells were exposed to the indicated concentrations of G418. Luciferase activity was measured after a 12 hour exposure on a robotic 96 well plate reader. Gentamycin was also used to inhibit NMD and premature translation termination.
On day 1, clone 55–31, a 293 cell line stably transfected with pMLT 55 (see FIG. 1) was plated in 96 well plates in the morning in DMEM media with 10% fetal bovine serum. Approximately 80 plates are plated at 40,000 cells per well in 100 μL. The cells were incubated overnight at 37° C.
On day two, test compounds (1 μL of 1 mM stock solution in 100 μL DMSO; 10 μM final concentration) were added. G418 (1 mg/ml) was added to column 12 of each plate as a control. The plates were incubated at 37° C. for 12–16 hours.
On day three, luciferase substrate was added to the cells and the plates were read on a Torcon automated luciferase assay reader for 96 well plates (see, e.g., FIGS. 3–4). Luciferase substrate is commercially available, e.g., from Promega.

[3] = tested on: premature translation termination (stop codon-containing luciferase RNA); test: Biochemical suppression assay using RRL (rabbit reticulocyte lysate) and luciferase RNA; settings: WT or stop codon luciferase RNA, incubated 45 or 90 minutes, FIGS. 7A-B
Procedure: In vitro translation assays were performed in the presence of RRL, luciferase RNA (panel A, WT; panel B, stop codon) and the indicated concentrations of gentamycin. Reactions were incubated 45 or 90 minutes before luciferase activity was determined. WT and stop codon containing RNA are schematically shown. The reactions were performed in either a 96 or 384 well format. In vitro synthesized reporter RNA (see constructs in FIG. 5) was added to 15 μL of fully supplemented rabbit reticulocyte lysate according to standard methodology (prepared by the method of Jackson & Hunt, Methods in Enzymology 96:50–75 (1983). 0.5 to 1 μg of in vitro transcribed RNA was used per reaction. The reaction was mixed with 15 μL of a 2% DMSO solution containing 20 μM of test compound. The reaction was incubated for 90 minutes at 30° C. in a humidified incubator. Luciferase substrate was added and luciferase activity was read on a Torcon automated reader (see FIGS. 6–7).

[4] = tested on: premature stop codons in the dystrophin gene; settings: mdx mouse, Barton-Davis et al. 1999; cited from earlier work

For `CN[C@@H]1[C@@H](O)[C@@H](O[C@@H]2[C@@H](O)[C@H](O[C@H]3O[C@H]([C@@H](C)O)[C@@H](O)[C@H](O)[C@H]3N)[C@@H](N)C[C@H]2N)OC[C@]1(C)O` [G418], which “G418-mediated suppression (luciferase activity)” value [1] is on record?
Its value is “not cell line specific”.

What about the “G418-mediated suppression (luciferase activity), high throughput format” value ([2]; clone #31, 96 well plate, FIG. 4) of the same compound?
The value was “suppression in a stably transfected 293 cell line (clone #31) in high throughput format”.

What about the “G418-mediated suppression (relative luciferase activity, fold activation)” value ([2]; independent clones of 293 cells stably transfected with pMLT55, FIGS. 3A-B) of the same compound?
Its value is “suppression in various clones of stably transfected 293 cells”.

Which “Suppression by gentamycin (luciferase activity)” value [3] does the source give for gentamycin here?
The value was “time dependent”.

Which “Suppression of translational termination at premature stop codons” value [4] does the source give for gentamycin sulfate here?
Its value is “found to suppress translational termination at premature stop codons in the dystrophin gene”.
